Measurements as given in patent US10597388B2, “Pyridazinone herbicides” (FMC CORPORATION, priority 2014, dated 2020).

Columns and labels:
Experiment in all cases: Test E greenhouse herbicide test, pre- and postemergence
Format in all cases: in vivo
[1] = test system: crabgrass, large (large crabgrass, Digitaria sanguinalis); settings: Preemergence
How it was run: (§1)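 Scores (0–100, visual, vs controls) reflect greenhouse growth of 14 to 21 d after treatment. Application was pre-emergence to silt loam or post-emergence at the 1- to 4-leaf stage.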

[2] = test system: velvetleaf (Abutilon theophrasti); settings: Preemergence
How it was run: as §1

[3] = test system: foxtail, green (green foxtail, Setaria viridis); settings: Preemergence
How it was run: as §1

corn (Zea mays) = test system: corn (Zea mays)
How it was run: as §1

[4] = test system: panicum, fall (fall panicum, Panicum dichotomiflorum)
How it was run: as §1

[5] = test system: nightshade (eastern black nightshade, Solanum ptycanthum); settings: Preemergence
How it was run: as §1

[6] = test system: surinam grass (Brachiaria decumbens); settings: Preemergence
How it was run: as §1

[7] = test system: foxtail, giant (giant foxtail, Setaria faberii); settings: Preemergence
How it was run: as §1

[8] = test system: arrowleaf sida (Sida rhombifolia)
How it was run: as §1

[9] = test system: sandbur (southem sandbur, Cenchrus echinatus)
How it was run: as §1

[10] = test system: barnyardgrass (Echinochloa crus-galli)
How it was run: as §1

[11] = test system: lambsquarters (Chenopodium album); settings: Preemergence
How it was run: as §1

kochia (Kochia scoparia) = test system: kochia (Kochia scoparia)
How it was run: as §1

[12] = test system: crabgrass, Brazilian (Brazilian crabgrass, Digitaria horizontalis)
How it was run: as §1

[13] = test system: Italian ryegrass (Lolium multiflorum)
How it was run: as §1

[14] = test system: goosegrass (Eleusine indica); settings: Preemergence
How it was run: as §1

[15] = test system: horseweed (Conyza canadensis)
How it was run: as §1

[16] = 62 g ai/ha, scale 0 to 100 (0 no effect, 100 complete control)
[17] = 125 g ai/ha, scale 0 to 100 (0 no effect, 100 complete control)
[18] = 16 g ai/ha, scale 0 to 100, 0 no effect, 100 complete control
[19] = 31 g ai/ha, scale 0 to 100, 0 no effect, 100 complete control
[20] = 62 g ai/ha, Postemergence, scale 0 to 100 (0 no effect, 100 complete control)
[21] = 62 g ai/ha, Preemergence, scale 0 to 100 (0 no effect, 100 complete control)
[22] = 125 g ai/ha, Postemergence, scale 0 to 100 (0 no effect, 100 complete control)
[23] = 125 g ai/ha, Preemergence, scale 0 to 100 (0 no effect, 100 complete control)
[24] = Postemergence, 16 g ai/ha, visual, scale 0 no effect to 100 complete control
[25] = Postemergence, 31 g ai/ha, visual, scale 0 no effect to 100 complete control
[26] = Preemergence, 16 g ai/ha, scale 0 to 100, 0 no effect, 100 complete control
[27] = Preemergence, 31 g ai/ha, scale 0 to 100, 0 no effect, 100 complete control

Question: What does the source list for `CCC(=O)Oc1c(C)nn(C)c(=O)c1-c1c(C)sc2ccc(Cl)cc12` [Compound 109]?
Answer: Plant response rating, Crabgrass, Large [1, 16]: 40; Plant response rating, Crabgrass, Large [1, 17]: 35; Plant response rating, Crabgrass, Large [1, 18]: 0; Plant response rating, Crabgrass, Large [1, 19]: 0; Plant response rating, Velvetleaf [2, 17]: 65; Plant response rating, Velvetleaf [2, 18]: 0; Plant response rating, Velvetleaf [2, 19]: 0; Plant response rating, Foxtail, Green [3, 16]: 40; Plant response rating, Foxtail, Green [3, 17]: 60; Plant response rating, Foxtail, Green [3, 18]: 0; Plant response rating, Foxtail, Green [3, 19]: 0; Plant response rating, Corn (corn (Zea mays); [20]): 10; Plant response rating, Corn (corn (Zea mays); [21]): 0; Plant response rating, Corn (corn (Zea mays); [22]): 20; Plant response rating, Corn (corn (Zea mays); [23]): 0; Plant response rating, Corn (corn (Zea mays); [24]): 0; Plant response rating, Corn (corn (Zea mays); [25]): 0; Plant response rating, Corn (corn (Zea mays); [26]): 0; Plant response rating, Corn (corn (Zea mays); [27]): 0; Plant response rating, Panicum, Fall [4, 20]: 65; Plant response rating, Panicum, Fall [4, 22]: 80; Plant response rating, Panicum, Fall [4, 23]: 95; Plant response rating, Panicum, Fall [4, 24]: 50; Plant response rating, Panicum, Fall [4, 25]: 60; Plant response rating, Panicum, Fall [4, 26]: 75; Plant response rating, Panicum, Fall [4, 27]: 80; Plant response rating, Nightshade [5, 17]: 98; Plant response rating, Nightshade [5, 18]: 25; Plant response rating, Nightshade [5, 19]: 65; Plant response rating, Surinam Grass [6, 17]: 40; Plant response rating, Surinam Grass [6, 18]: 0; Plant response rating, Surinam Grass [6, 19]: 30; Plant response rating, Foxtail, Giant [7, 16]: 40; Plant response rating, Foxtail, Giant [7, 17]: 80; Plant response rating, Foxtail, Giant [7, 18]: 0; Plant response rating, Foxtail, Giant [7, 19]: 35; Plant response rating, Arrowleaf Sida [8, 20]: 60; Plant response rating, Arrowleaf Sida [8, 21]: 30; Plant response rating, Arrowleaf Sida [8, 22]: 80; Plant response rating, Arrowleaf Sida [8, 23]: 35; Plant response rating, Arrowleaf Sida [8, 24]: 50; Plant response rating, Arrowleaf Sida [8, 25]: 65; Plant response rating, Arrowleaf Sida [8, 26]: 40; Plant response rating, Arrowleaf Sida [8, 27]: 35; Plant response rating, Sandbur [9, 22]: 70; Plant response rating, Sandbur [9, 23]: 75; Plant response rating, Sandbur [9, 24]: 60; Plant response rating, Sandbur [9, 25]: 40; Plant response rating, Sandbur [9, 26]: 0; Plant response rating, Sandbur [9, 27]: 40; Plant response rating, Barnyardgrass [10, 20]: 30; Plant response rating, Barnyardgrass [10, 21]: 10; Plant response rating, Barnyardgrass [10, 22]: 40; Plant response rating, Barnyardgrass [10, 23]: 25; Plant response rating, Barnyardgrass [10, 24]: 25; Plant response rating, Barnyardgrass [10, 25]: 30; Plant response rating, Barnyardgrass [10, 26]: 0; Plant response rating, Barnyardgrass [10, 27]: 0; Plant response rating, Lambsquarters [11, 17]: 98; Plant response rating, Lambsquarters [11, 18]: 0; Plant response rating, Lambsquarters [11, 19]: 95; Plant response rating, Kochia (kochia (Kochia scoparia); [20]): 95; Plant response rating, Kochia (kochia (Kochia scoparia); [22]): 100; Plant response rating, Kochia (kochia (Kochia scoparia); [23]): 100; Plant response rating, Kochia (kochia (Kochia scoparia); [24]): 80; Plant response rating, Kochia (kochia (Kochia scoparia); [25]): 95; Plant response rating, Kochia (kochia (Kochia scoparia); [26]): 0; Plant response rating, Kochia (kochia (Kochia scoparia); [27]): 10; Plant response rating, Crabgrass, Brazil [12, 20]: 30; Plant response rating, Crabgrass, Brazil [12, 21]: 40; Plant response rating, Crabgrass, Brazil [12, 22]: 50; Plant response rating, Crabgrass, Brazil [12, 23]: 70; Plant response rating, Crabgrass, Brazil [12, 24]: 10; Plant response rating, Crabgrass, Brazil [12, 25]: 40; Plant response rating, Crabgrass, Brazil [12, 26]: 70; Plant response rating, Crabgrass, Brazil [12, 27]: 60; Plant response rating, Ryegrass, Italian [13, 20]: 90; Plant response rating, Ryegrass, Italian [13, 22]: 85; Plant response rating, Ryegrass, Italian [13, 23]: 98; Plant response rating, Ryegrass, Italian [13, 24]: 50; Plant response rating, Ryegrass, Italian [13, 25]: 75; Plant response rating, Ryegrass, Italian [13, 26]: 60; Plant response rating, Ryegrass, Italian [13, 27]: 75; Plant response rating, Goosegrass [14, 16]: 25; Plant response rating, Goosegrass [14, 17]: 50; Plant response rating, Goosegrass [14, 18]: 0; Plant response rating, Goosegrass [14, 19]: 20; Plant response rating, Horseweed [15, 20]: 90; Plant response rating, Horseweed [15, 21]: 100; Plant response rating, Horseweed [15, 22]: 85; Plant response rating, Horseweed [15, 23]: 100; Plant response rating, Horseweed [15, 24]: 60; Plant response rating, Horseweed [15, 25]: 80; Plant response rating, Horseweed [15, 26]: 0; Plant response rating, Horseweed [15, 27]: 100
